Laboratory results from patent publication US11427593B2, “Bromodomain inhibitor compound and use thereof” (SHANGHAI INSTITUTE OF MATERIA MEDICA, CHINESE ACADEMY OF …, priority 2018, dated 2022).

Legend:
MM.1S cells = test: MM.1S cell growth inhibition assay (CellTiter Glo, 96 h); assay type: cell-based; settings: MM.1S multiple myeloma cells
Procedure: The cell suspension was pipetted into a 15 mL centrifuge tube, and centrifuged at 800 rpm for 3 minutes. The supernatant was discarded. 2 mL of culture medium was added to the centrifuge tube, and the cells were resuspended evenly by gentle pipetting. The cell density was measure by a hemacytometer. Then the cell suspension was diluted to 50,000 cells/mL. The diluted cell suspension was added to a 96-well cell culture plate (Corning, 3599) in 100 μl/well (in column 1, there was 0.5% DMSO-containing medium in each well, and MM.1S cells were seeded in the remaining 88 wells). The plate was placed in a CO2 incubator overnight.
The compound to be tested was prepared into 10 mM solution in DMSO, and then the compound was prepared into a 2 mM solution in DMSO, which was added to the compound plate, and then it was diluted with DMSO in a 4-fold gradient dilution to be 7 points. 0.5 μL of the compound in the plate of the compound to be tested was pipetted into the cell culture plate (the compound was added to rows A to G, and 0.5 μL of DMSO was added to row H as a control). The final concentrations of the compound were 10000 nM, 2500 nM, 625 nM, 156.25 nM, 39.06 nM, 9.77 nM, 2.44 nM. The plate was returned to the CO2 incubator and incubated for 96 h. Then cell survival was detected by using CellTiter Glo reagent (Promega, Cat. No. G7573, Lot. No. 0000310975). The cell culture plate was taken out and equilibrated to room temperature. 100 μL of CellTiter Glo reagent was added to each well. The plate was shaken for 10 min in the dark, and incubated for 10 min. Then the culture plate was put into a multi-functional microplate reader EnSpire (PerkinElmer) for reading, and detected at 400-700 nm. The reading data were recorded. […] XLFit was used to plot the dose-response inhibition curve (four-parameter model [fit=(A+((B−A)/(1+((C/x)^D))))] and calculate the IC50 values.

MV4-11 cells = test: Cell growth inhibition assay, MV4-11 (CellTiter-Glo, 72 h); assay type: cell-based; settings: Homo sapiens, MV4-11 acute mononuclear leukemia cells
Procedure: After seeding the cells in the plate, the cells were placed in a CO2 incubator (37° C., 5% CO2) and incubated for 1 h. […] After adding the compound, the cells were placed in a CO2 incubator (37° C., 5% CO2) for 72 h. CellTiter-Glo reagent (Promega, G7572) was used to determine cell survival. […] The detection result was analyzed and fitted by GraphPad Prism 5.0 software to give IC50 values.

[1] = biological target: BRD4_BD1 (49-170) protein (Homo sapiens (Human), UniProt O60885); test: AlphaScreen assay: inhibition of binding of BRD4 bromodomain BD1 to acetylated histone H4 polypeptide; settings: BRD4 BD1 vs acetylated H4 polypeptide, read-out: ALPHA IC50
Excerpt: AlphaScreen kit (Perkin Elmer) was used to detect effect of the compounds on binding of BRD4 bromodomain to acetylated histone H4 polypeptide. […] Each of fusion proteins containing (His)6tag can be recognized and bound by Ni^2+. […] The donor microbeads were coated with streptavidin and can bind to biotinylated acetylated H4 polypeptide. The acceptor microbeads were coated with Ni^2+ ions and can bind to the BD1 protein with (His)6tag. When the BD1 protein recognized the acetylated H4 polypeptide, the donor microbeads and the acceptor microbeads can be brought closer to a certain distance. Within this range, the donor microbeads can produce singlet oxygen after being irradiated with a 680 nm excitation light, and transfer the singlet oxygen to the acceptor microbeads. After a series of cascade chemical reactions, the acceptor microbeads will generate an emission wave of 520-620 nm, which in turn can be detected a signal. In this experiment, the test system was 20 μL, and the compound needs to be diluted in buffer 1 (20 mM HEPES pH 7.4, 150 mM NaCl, 1 mM dithiothreitol). First, a solution of 20 mM compound was consecutively diluted twice, each in 10 times, totally in 100 times to a concentration of 200 μM. […] The recombinant BD1 protein solution and the acetylated histone H4 polypeptide were diluted in the buffer 2 (20 mM HEPES pH 7.4, 150 mM NaCl, 0.01% Triton X-100, 0.1% bovine serum protein (w/v, Sigma), 1 mM dithiothreitol) to 100 nM and 100 nM respectively, to obtain a 8×BD1 protein working solution and a 4× acetylated histone H4 polypeptide working solution. The donor microbeads and the acceptor microbeads are diluted together in the buffer 2, both in the ratio of 1:100, to obtain a 2× microbead mixed working solution. The plate was added with 2.5 μL of BD1 protein working solution and incubated with the compound for 20 min at room temperature, and then added with 5 μL of acetylated histone H4 polypeptide working solution and incubated at room temperature for 5 min, and finally added with 10 μL of microbead mixed working solution and incubated at room temperature for 60 min. […] IC50 values of the compounds at different concentrations for inhibiting the binding of BD1 protein to acetylated H4 polypeptide were calculated by fitting using GraphPad Prism 5.0 software.

IC50 (MV4-11 cells) [nM] | IC50 (MM.1S cells; Homo sapiens, MM1.S) [nM] | SMILES | further results
20.4 | 52.1 | CCS(=O)(=O)Nc1ccc(Oc2ccc(F)cc2F)c(-c2cc(C)c3c(=O)[nH]ccn23)c1 [ZB-BD-78] | –
131 | – | Cc1cc(-c2cc(NS(C)(=O)=O)ccc2OCC2CC2)n2cc[nH]c(=O)c12 [ZB-BD-83] | –
78.7 | – | Cc1cc(-c2cc(CS(C)(=O)=O)ccc2Nc2ccccc2)n2cc[nH]c(=O)c12 [ZB-BD-87] | –
76.6 | – | Cc1cc(-c2cc(CS(C)(=O)=O)ccc2Nc2ccc(F)cc2)n2cc[nH]c(=O)c12 [ZB-BD-90] | –
– | 39.2 | Cc1cc(-c2cc(NS(C)(=O)=O)ccc2OC2CCCCC2)n2cc[nH]c(=O)c12 [ZB-BD-92] | –
91 | – | Cc1cc(-c2cc(NS(C)(=O)=O)ccc2Oc2cccnc2)n2cc[nH]c(=O)c12 [ZB-BD-94] | IC50 [1]: 14 nM
< 100 | – | Cc1cc(-c2cc(NS(C)(=O)=O)ccc2Oc2ccccc2)n2cn[nH]c(=O)c12 [ZB-BD-102] | –
– | 64.3 | Cc1cc(-c2cc(CS(C)(=O)=O)ccc2Oc2ccc(F)cc2F)n2cc[nH]c(=O)c12 [ZB-BD-112] | –
– | 70.3 | CCS(=O)(=O)Cc1ccc(Oc2ccc(F)cc2F)c(-c2cc(C)c3c(=O)[nH]ccn23)c1 [ZB-BD-116] | IC50 [1]: 8.8 nM
– | 73.5 | Cc1cc(-c2cc(CS(C)(=O)=O)cnc2Oc2ccc(F)cc2F)n2cc[nH]c(=O)c12 [ZB-BD-147] | –
– | 53.2 | Cc1cc(-c2cc(NS(C)(=O)=O)cnc2OC2CCCCC2)n2cc[nH]c(=O)c12 [ZB-BD-179] | –
– | 22.8 | Cc1cc(-c2cc(CS(C)(=O)=O)ccc2OC2CCCCC2)n2cc[nH]c(=O)c12 [ZB-BD-187] | –
– | 25.7 | Cc1cc(-c2cc(CS(C)(=O)=O)cnc2OC2CCCCC2)n2cc[nH]c(=O)c12 [ZB-BD-202] | –
25.4 | – | Cc1ccccc1Oc1ccc(NS(C)(=O)=O)cc1-c1cc(C)c2c(=O)[nH]ccn12 [ZB-BD-232] | –

More lines, now with the values behind:

SMILES | IC50 (MV4-11 cells) [nM] | IC50 (MM.1S cells; Homo sapiens, MM1.S) [nM] | further results
Cc1sc2c(c1C)C(c1ccc(Cl)cc1)=N[C@@H](CC(=O)OC(C)(C)C)c1nnc(C)n1-2 [JQ1, reference compound] | – | – | IC50 (MM.1S cells): 181 nM
Cc1cc(-c2cc(NS(C)(=O)=O)ccc2Oc2ccccc2)n2cc[nH]c(=O)c12 [ZB-BD-70] | 33.1 | – | –
Cc1cc(-c2cc(NS(C)(=O)=O)ccc2Oc2ccccc2)n2c1C(=O)NCC2 [ZB-BD-74] | 31.2 | – | –
CCS(=O)(=O)Nc1ccc(Oc2ccccc2)c(-c2cc(C)c3c(=O)[nH]ccn23)c1 [ZB-BD-77] | 13.4 | – | –
Cc1cc(-c2cc(NS(C)(=O)=O)ccc2Oc2ccc(F)cc2F)n2cc[nH]c(=O)c12 [ZB-BD-80] | 29.2 | – | –
Cc1cc(-c2cc(NS(C)(=O)=O)ccc2OC2CCOCC2)n2cc[nH]c(=O)c12 [ZB-BD-96] | < 100 | – | –
Cc1cc(-c2cc(NS(C)(=O)=O)ccc2Oc2ccc(F)cc2F)n2cn[nH]c(=O)c12 [ZB-BD-103] | < 100 | – | –
Cc1cc(-c2cc(NS(C)(=O)=O)ccc2Oc2cccnc2)n2cn[nH]c(=O)c12 [ZB-BD-120] | 113 | – | IC50 [1]: 36.6 nM
Cc1cc(-c2cc(S(C)(=O)=O)ccc2Nc2ccccc2)n2cc[nH]c(=O)c12 [ZB-BD-130] | – | – | IC50 [1]: 326 nM
CCS(=O)(=O)Cc1cnc(Oc2ccc(F)cc2F)c(-c2cc(C)c3c(=O)[nH]ccn23)c1 [ZB-BD-216] | – | 14.2 | –
Cc1cccc(C)c1Oc1ccc(NS(C)(=O)=O)cc1-c1cc(C)c2c(=O)[nH]ccn12 [ZB-BD-236] | 48.5 | – | –
CCS(=O)(=O)Cc1ccc(Oc2c(C)cccc2C)c(-c2cc(C)c3c(=O)[nH]ccn23)c1 [ZB-BD-237] | 21.6 | – | –
CCS(=O)(=O)c1ccc(Oc2c(C)cccc2C)c(-c2cc(C)c3c(=O)[nH]ccn23)c1 [ZB-BD-239] | 90.6 | – | –
CCS(=O)(=O)c1ccc(Oc2ccccc2C)c(-c2cc(C)c3c(=O)[nH]ccn23)c1 [ZB-BD-240] | 5.3 | – | –
CCS(=O)(=O)Cc1cnc(Oc2ccc(F)cc2F)c(-c2cc(C)c3c(=O)[nH]ncn23)c1 [ZB-BD-241] | 7.9 | – | IC50 [1]: 14.3 nM
